Series [1] in a line: Circular dichroism spectroscopy (alpha-helical content, R-value). The series is classed as physicochemical. The following applies: for % of alpha helix, 50% TFE / % of alpha helix, Phosphate Buffer: CD, calculated per ref 31; for % of alpha helix, 50% TFE: 20 µM peptide in 10 mM phosphate buffer (pH 7.0) with 50% TFE (v/v); for R-value, 50% TFE: 20 µM peptide in 10 mM phosphate buffer (pH 7.0) with 50% TFE. Here is the method:
Conjugates were dissolved in 10 mM phosphate buffer (pH 7.0), either alone or supplemented with 50% TFE (v/v), to a final concentration of 20 µM. CD spectra of all conjugates were recorded from 180–260 nm (0.5 nm intervals) on a J-715 spectropolarimeter (JASCO, Pfungstadt, Germany) in an N2 atmosphere.
To find out more, we performed CD spectroscopy for all peptides solved either in phosphate buffer or in phosphate buffer supplemented with trifluoroethanol (TFE), respectively. All conjugates and sC18 adopted an alpha-helix, when present in phosphate buffer with TFE (Figure S20). On the other hand, when CB-conjugates were solved in phosphate buffer only (Figure 1C), some of them directly formed distinct secondary structures. […] Taking this observation into account, we concluded that the number of CB moieties actually promoted the formation of alpha-helical structures. This effect might be further explained by the helical wheel projection of each conjugate showing that the hydrophobic face of the peptide was clearly enlarged when three or more CB units were attached (see Figure S21). […]

The test system of the next series is human red blood cells. The series can be described thus: Hemolysis assay. The following applies: human RBCs 5% (v/v in PBS), 37 °C, up to 25 µM peptide, absorption at 560 nm, normalized to Triton-x-100 control, triplicate, n = 2. The series is classed as cell-based. The protocol: Human red blood cells were washed five times with PBS (4 °C, 3000× g, 5 min) and diluted to 5% (v/v in PBS). In total, 100 µL of this solution were transferred into a fresh 96-well plate. In total, 50 µL of peptide solution were added and gently resuspended. Red blood cells were incubated for either 1 or 24 h at 37 °C and 5% CO2, respectively. In total, 50 µL of 10% Triton-x-100 were added 10 min prior to the end of the incubation time and served as a positive control. After incubation, cells were centrifuged (r.t., 2500× g, 3 min). The supernatant was carefully transferred into a fresh 96-well plate and the absorption at 560 nm was measured on a Tecan infinite M200 plate reader (Tecan Group AG, Männedorf, Switzerland). The measured absorption referred to the hemoglobin concentration.
Next, we incubated human red blood cells (RBCs) with different concentrations of CB-sC18 conjugates at 37 °C for 1 or 24 h, respectively. Since their cell membranes are mainly composed of neutral lipids, RBCs serve as an excellent biological model for the lytic activity of a peptide. […] For sC18, this agreed with the detected low activity when in contact with zwitterionic LUVs. […] The same activity profile was observed when incubating peptide conjugates with RBCs for only one hour (Figure S30), whereas the effects started at concentrations higher than 5 µM. […]

For series [2], the system named is HeLa cells. The series can be described thus: Cell viability assay (resazurin). The series is classed as cell-based. The following applies: 37 °C, serum-free medium, 125 nM–100 µM, relative to untreated cells. Here is the method:
In total, 17.000 HeLa cells per well were seeded onto 96-well plates (Sarstedt, Nümbrecht, Germany). After confluency of 80–90% was reached, the growth medium was removed, and cells were incubated with 100 µL of peptide solution of different concentrations (125 nM–100 μM in serum-free medium) for 24 h at 37 °C. For a positive control, cells were treated with 70% EtOH for 10 min. Cells were washed with serum-free medium and incubated with 10% (v/v) resazurin (Sigma-Aldrich, Merck group: Darmstadt, Germany) in serum-free medium for 1.5 h at 37 °C. Cell viability was determined by measurement of the resorufin product at 595 nm (λex = 550 nm) on a Tecan infinite M200 plate reader (Tecan Group AG, Männedorf, Switzerland). Viability was calculated from the fluorescence values of treated cells in relation to untreated cells.
In general terms: Resazurin is reduced to fluorescent resorufin, in cell work by metabolically active cells.

The test system of series [3] is HeLa cells. Description: Cellular uptake by flow cytometry. The series is classed as cell-based. The following applies: 1 µM CF-labeled peptide, serum-free medium, 37 °C; for Cellular uptake into HeLa cells, 30 min: triplicate, n = 3. The protocol: HeLa cells were seeded onto 24-well plates (Sarstedt, Nümbrecht, Germany, 100,000 cells per well, respectively). After reaching 80–90% confluency, medium was removed, and cells were incubated with 1 µM CF-labeled peptide solution in serum-free medium for either 30 min or 2 h at 37 °C. The peptide solution was removed, cells were washed twice with PBS, and trypsinized for 5 min. Detached cells were resuspended in full medium (phenol red free) and afterwards analyzed using a guava easycyte HT flow cytometer (Merck, Darmstadt, Germany).
In general terms: A flow cytometer gives signals particle by particle.

The subject of series [4] is HeLa cells. The series can be described thus: Proliferation assay, co-incubation with Daunorubicin. The series is classed as cell-based. The following applies: 2 h, washout, 72 h growth, resazurin; for Effect on cytotoxicity of Dau (co-incubation): 1 µM peptide with 100 nM or 1 µM Daunorubicin. Here is the method: In total, 3000 HeLa cells per well were seeded onto 96-well plates (Sarstedt, Nümbrecht, Germany). When a confluency of 30–40% was reached, medium was removed and cells were incubated with peptides and Daunorubicin at different concentrations (1 µM peptide concentration and 100 nM or 1 µM Daunorubicin in serum-free medium) for 2 h at 37 °C. Afterwards, a washout was performed, and cells were washed once with 100 µL of serum-free medium. Then, 200 µL of medium with serum were added and cells were grown for 72 h at 37 °C. As a positive control, cells were treated with 70% EtOH for 10 min. Afterwards, cells were covered with 10% (v/v) resazurin (Sigma-Aldrich, Merck group: Darmstadt, Germany) in serum-free medium for 1.5 h at 37 °C. The cell viability of treated cells was determined relative to that of untreated cells by measurement of the resorufin product at 595 nm (λex = 550 nm) on a Tecan infinite M200 plate reader (Tecan Group AG, Männedorf, Switzerland). Viability was calculated from the fluorescence values of treated cells in relation to untreated cells.

The test system of series [5] is HeLa cells. The series can be described thus: Transfection with mCherry plasmid. The following applies: peptide:plasmid 3:1 (250 ng plasmid), 1 µM peptide, 2 h, inspected 72 h after transfection, fluorescence microscopy. The series is classed as cell-based. The protocol:
HeLa cells were seeded into 8-well plates (ibidi, Gräfelfing, Germany, 8000 cells per well, respectively) and grown to 30–40% confluency. Peptides and mCherry plasmid were co-incubated for 1 h at 37 °C at a ratio of 3:1 in serum-free medium (mCherry plasmid: 250 ng). Afterwards, the medium was removed, and the solution was added to the cells. Additional serum-free medium was added to ensure a final peptide concentration of 1 µM. Cells were incubated for 2 h with the peptides and peptide/plasmid solution at 37 °C, respectively. As a positive control, Lipofectamine 2000 (Invitrogen, Thermo Scientific, Waltham, MA, USA) was used and as a negative control, cells were treated with plasmid only. Afterwards, a washout was performed, and cells were washed once with 150 µL of serum-free medium. In total, 300 µL of medium with serum were added and cells were grown for 72 h at 37 °C. Ten minutes prior to microscopic analysis, 0.6 µL of Hoechst33342 were added. Then, cells were washed twice with 150 µL of serum-free medium. In total, 300 µL of serum-supplemented medium were added and cells analyzed using a BZ-X800E microscope (Keyence, Osaka, Japan).

Series [6] can be described thus: Critical micelle concentration (CMC) determination by UV-VIS. The following applies: peptide in water, 1–200 µM; UV absorbance at 255 nm plotted against logarithm of peptide concentration, intersection point of two lines. The series is classed as physicochemical. Here is the method: Peptide conjugates were dissolved in water and different concentrations (1–200 µM) were prepared. UV-VIS spectra ranging from 200–700 nm were recorded using a 1 cm path length quartz cuvette in a Spectroquant Pharo 300 photometer (Merck, Darmstadt, Germany). The absorbance at 255 nm was plotted against the logarithm of the peptide concentration. The intersection point of two lines was determined as CMC.
Since this effect was obviously dependent on the hydrophobic nature of the conjugates, we were then interested in whether they would also self-assemble and form nanostructures, such as micelles or fibrils. An easy to apply and fast method makes use of changes in spectroscopic properties associated with micelle formation. For this, one measures the UV absorbance at a specific wavelength as a function of the concentration. Because aggregates like micelles and free molecule species contribute to a different extent to the absorbed UV light, an abrupt change of the slope occurs above a certain point. The corresponding concentration is defined as the critical micelle concentration (CMC). We measured the UV-VIS spectra of all CB-sC18 conjugates and observed for all an additional concentration-dependent maximum at 255 nm (Figure 1A,B and Table 2), whereas this maximum was not detected for meta-carborane-1-carboxylic acid (Figure S14) or sC18 alone (Figure S15).
Thus, we hypothesized this maximum as evidence for a possible self-assembly, and by plotting the absorbance at 255 nm against the logarithm of the peptide concentration, we assigned the intersection point as CMC.

Series [7] is described as follows: CF-leakage assay, negatively charged LUVs. The following applies: 1 µM peptide, 25 °C, 90 min; fluorescence, normalized to Triton x-100; duplicate, n = 2. Here is the method: (§1) Large unilamellar vesicles (LUVs) were prepared by dissolving different lipids in CHCl3, to reach the desired compositions (lipids were purchased from Avanti Polar Lipids, Inc., Alabaster, AL, USA). To remove the solvent, the mixture was placed into a round-bottomed flask on ice and the solvent was evaporated under reduced pressure for 20 min at 40 °C and afterwards under vacuum for another 5 min. The dried lipid film was then hydrated with HKS buffer (25 mM HEPES, 150 mM KCl, pH 7.4, 10% sucrose (w/v)), supplemented with 100 mM 5(6)-carboxyfluorescein (CF), and homogenized for 5 min at 45 °C to form liposomes (final concentration: 8 mM). The resulting multilamellar vesicle dispersion underwent 10 freeze/thawing cycles and was passed 21 times through a mini extruder (0.4 µm polycarbonate treck-etch membrane; Avanti Polar Lipids, Inc., Alabaster, AL, USA). External CF was removed by size exclusion chromatography (PD10 column, GE Healthcare, Chicago, IL, USA). Peptides were added to the LUVs and the CF release was monitored by measuring the increased fluorescence intensity on a plate reader (Biotek, Winooski, VT, USA). […]
(§2) Our results thus far inspired us to investigate how the novel CB-conjugates would perform in a lipid environment. […] Both lipid systems were additionally loaded with CF in order to monitor membrane leakage via fluorescence dye outflow.

Series [8] in a line: CF-leakage assay, zwitterionic LUVs. The note with it: 1 µM peptide, 25 °C, 90 min; fluorescence, normalized to Triton x-100; duplicate, n = 2. The protocol: as §1, §2
Setting [9] is: 20 µM peptide in 10 mM phosphate buffer (pH 7.0).
Where [10] appears, read: ratio between the molar ellipticity values at 222 and 208 nm.

Turning to “K-GLRKRLRKFRNKIKEK [CB1-sC18, sC18 conjugate bearing one meta-carborane (CB) cluster]”, the “% of alpha helix, 50% TFE” value in series [1] is reported as 50.68%. Moreover, the “% of alpha helix, Phosphate Buffer” value in series [1] (setting [9]) is on record as 5.02%. The “R-value, 50% TFE” value in series [1] (setting [10]) stood at 0.85. In addition, the “Hemolytic activity towards RBCs, 24 h” value with human red blood cells is given as “did not exhibit any effect”. Moreover, the “Cytotoxicity towards HeLa cells, 24 h” value in the series with HeLa cells [2] is “lowest cytotoxic effect”. For the same substance, the “Cellular uptake into HeLa cells, 30 min” value with HeLa cells [3] is reported as “internalized nearly to the same extent”. Besides, the “Effect on cytotoxicity of Dau (co-incubation)” value in the series with HeLa cells [4] is recorded as “did not alter the cytotoxicity of Dau”. Besides, the “mCherry pDNA transfection (red fluorescent signal)” value in the series with HeLa cells [5] is “only a weak red signal”.

As for “KKKK-GLRKRLRKFRNKIKEK [CB4-sC18, sC18 conjugate bearing four meta-carborane clusters]”, the “% of alpha helix, 50% TFE” value in [1] is on record as 56.30%. Besides, the “% of alpha helix, Phosphate Buffer” value in [1] (setting [9]) is 21.68%. In addition, in [1] (ratio between the molar ellipticity values at 222 and 208 nm, 20 µM peptide in 10 mM phosphate buffer (pH 7.0)), the “R-value, Phosphate Buffer” value is given as 0.73. Moreover, the “R-value, 50% TFE” value in series [1] (setting [10]) is 0.98. The CMC in series [6] was found to be 43.45 ± 1.15 µM. Further, the “CF release (leakage) from negatively charged LUVs” value in series [7] is “highest leakage rate”. Further, in series [8], the “CF release (leakage) from zwitterionic LUVs” value is recorded as “highest leakage rate towards both tested model systems”. For the same substance, the “Cellular uptake into HeLa cells, 30 min” value in the series on HeLa cells [3] is given as “highest”. In the series on HeLa cells [3] (2 h), the “Cellular uptake into HeLa cells, 2 h” value was “internalized the most”. Further, the “Effect on daunorubicin activity at 100 nM Dau” value in the series on HeLa cells [4] (1 µM peptide with 100 nM Dau) is recorded as “slightly increased”. Besides, in the series with HeLa cells [4], the “Effect on cytotoxicity of Dau (co-incubation)” value was “did not alter the cytotoxicity of Dau”. The “mCherry pDNA transfection (red fluorescent signal)” value in the series on HeLa cells [5] is “strong red intracellular signals”.

These data come from publication PMC8709211, “Improving Membrane Activity and Cargo Delivery Efficacy of a Cell-Penetrating Peptide by Loading with Carboranes” (Pharmaceutics, 2021).
